Reference: PubChem BioAssay AID1919007 (Molecular Pharmacology Branch, DTP, NCI, 2023)

Tested on: A498 complex spheroids with HUVEC/MSC, growth
Test: Anticancer human tumor A498 cell line growth inhibition [AhR];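 further: seven day exposure starting three days after spheroid seeding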;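 on viability, T/C: luminescence signal used as a surrogate for viable cells; luminescence viability scaled so 100% equals DMSO vehicle wells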
Settings: for IC50: curve of first compound; for viability, T/C: stronger effect = lower value
How it was run: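 Agents were dosed in half-log steps down from roughly clinical Cmax, or from 10 microM where Cmax was unknown, alone and with AhR antagonists. Read-out: percent test/control growth of tumor spheroids containing HUVEC and MSC stromal cells.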

[1] = second compound 0.1 µM, first compound 0.0316 µM
[2] = second compound 0.1 µM, first compound 0.1 µM
[3] = second compound 0.1 µM, first compound 0.316 µM
[4] = second compound 0.1 µM, first compound 1 µM
[5] = second compound 0.316 µM, first compound 0.0316 µM
[6] = second compound 0.316 µM, first compound 0.1 µM
[7] = second compound 0.316 µM, first compound 0.316 µM
[8] = second compound 0.316 µM, first compound 1 µM
[9] = second compound 1 µM, first compound 0.0316 µM
[10] = second compound 1 µM, first compound 0.1 µM
[11] = second compound 1 µM, first compound 0.316 µM
[12] = second compound 1 µM, first compound 1 µM
[13] = second compound 3.16 µM, first compound 0.0316 µM
[14] = second compound 3.16 µM, first compound 0.1 µM
[15] = second compound 3.16 µM, first compound 0.316 µM
[16] = second compound 3.16 µM, first compound 1 µM
[17] = second compound 10 µM, first compound 0.0316 µM
[18] = second compound 10 µM, first compound 0.1 µM
[19] = second compound 10 µM, first compound 0.316 µM
[20] = second compound 10 µM, first compound 1 µM
[21] = second compound 0.1 µM, first compound 3.16 µM
[22] = second compound 0.1 µM, first compound 10 µM
[23] = second compound 0.316 µM, first compound 3.16 µM
[24] = second compound 0.316 µM, first compound 10 µM
[25] = second compound 1 µM, first compound 3.16 µM
[26] = second compound 1 µM, first compound 10 µM
[27] = second compound 3.16 µM, first compound 3.16 µM
[28] = second compound 3.16 µM, first compound 10 µM
[29] = second compound 10 µM, first compound 3.16 µM
[30] = second compound 10 µM, first compound 10 µM

| Compound | IC50 (second compound 0.1 µM) | IC50 (second compound 0.316 µM) | IC50 (second compound 1 µM) | IC50 (second compound 3.16 µM) | IC50 (second compound 10 µM) | viability, T/C [1] | viability, T/C [2] | viability, T/C [3] | viability, T/C [4] | viability, T/C [5] | viability, T/C [6] | viability, T/C [7] | viability, T/C [8] | viability, T/C [9] | viability, T/C [10] | viability, T/C [11] | viability, T/C [12] | viability, T/C [13] | viability, T/C [14] | viability, T/C [15] | further results |
| --- | --- | --- | --- | --- | --- | --- | --- | --- | --- | --- | --- | --- | --- | --- | --- | --- | --- | --- | --- | --- | --- |
| CC1COCCN1c1cc(-c2ccnn2C)c2ccnc(-c3ccn[nH]3)c2n1 (stereo not given) + CC(CO)NC(=O)c1cc(-c2ccc(Cl)cc2)nn(-c2cnn(C)c2)c1=O | 77.7 nM | 78.8 nM | 72.7 nM | 62 nM | 41.7 nM | 82.3% | 40.5% | 20.1% | 13% | 76% | 44.1% | 17.1% | 14.3% | 78.6% | 39.1% | 18.4% | 15.7% | 70.7% | 34.9% | 21.4% | viability, T/C (second compound 0.1 µM, first compound 0.00316 µM): 96.4%; viability, T/C (second compound 0.1 µM, first compound 0.01 µM): 103%; viability, T/C (second compound 0.316 µM, first compound 0.00316 µM): 90%; viability, T/C (second compound 0.316 µM, first compound 0.01 µM): 104%; viability, T/C (second compound 1 µM, first compound 0.00316 µM): 93.6%; viability, T/C (second compound 1 µM, first compound 0.01 µM): 92.6%; viability, T/C (second compound 3.16 µM, first compound 0.00316 µM): 88.6%; viability, T/C (second compound 3.16 µM, first compound 0.01 µM): 84.9%; viability, T/C [16]: 15.4%; viability, T/C (second compound 10 µM, first compound 0.00316 µM): 65.7%; viability, T/C (second compound 10 µM, first compound 0.01 µM): 68.5%; viability, T/C [17]: 55.1%; viability, T/C [18]: 31.6%; viability, T/C [19]: 20.2%; viability, T/C [20]: 14% |
| COc1cccc2c1C(=O)c1c(O)c3c(c(O)c1C2=O)CC(O)(C(=O)CO)CC3OC1CC(N)C(O)C(C)O1 (stereo not given) + CC(CO)NC(=O)c1cc(-c2ccc(Cl)cc2)nn(-c2cnn(C)c2)c1=O | 129 nM | 148 nM | 231 nM | 119 nM | < 31.6 nM | 55.1% | 55.6% | 37.6% | 16.1% | 55% | 53.3% | 43.3% | 16.4% | 56.1% | 56.2% | 47.7% | 20.4% | 52.6% | 49.8% | 44.1% | viability, T/C [21]: 2.16%; viability, T/C [22]: 0.7%; viability, T/C [23]: 2.65%; viability, T/C [24]: 0.83%; viability, T/C [25]: 4.74%; viability, T/C [26]: 2.49%; viability, T/C [16]: 11.3%; viability, T/C [27]: 3.01%; viability, T/C [28]: 1.69%; viability, T/C [17]: 46.6%; viability, T/C [18]: 38.5%; viability, T/C [19]: 31.9%; viability, T/C [20]: 1.3%; viability, T/C [29]: 2.75%; viability, T/C [30]: 0.83% |
| COc1ccc([C@@H](O)c2cc(-c3ncnc4cc(N5CCOCC5)ccc34)c(F)cc2Cl)nn1 + Cc1ccccc1N=Nc1ccc(NC(=O)c2ccnn2C)c(C)c1 | 252 nM | 562 nM | 650 nM | 666 nM | 630 nM | 85.8% | 58% | 40.8% | 42.9% | 71.1% | 90.5% | 54.8% | 41.5% | 85.7% | 84% | 81.2% | 31.4% | 91.9% | 92.9% | 71.1% | viability, T/C [21]: 18.1%; viability, T/C [22]: 9.01%; viability, T/C [23]: 11.4%; viability, T/C [24]: 9.4%; viability, T/C [25]: 10.2%; viability, T/C [26]: 6.98%; viability, T/C [16]: 38.5%; viability, T/C [27]: 12.6%; viability, T/C [28]: 6.52%; viability, T/C [17]: 83.4%; viability, T/C [18]: 83.2%; viability, T/C [19]: 67.2%; viability, T/C [20]: 37.5%; viability, T/C [29]: 17.5%; viability, T/C [30]: 7.07% |
